Laboratory results: ChEMBL document CHEMBL1140230, “Discovery of begacestat, a Notch-1-sparing gamma-secretase inhibitor for the treatment of Alzheimer's disease” (J Med Chem, 2008)
≈ marks a conversion by molar mass, not a printed value. Calls of active or inactive are those of the source. The rule behind the calls is not given here.

How the values were obtained:
[1] = Inhibition of gamma-secretase expressed in CHO cells expressing human recombinant APP assessed as amyloid beta40 […]; assay type: cell-based
[2] = test system: Mus musculus; experiment: Reduction of amyloid beta40 level in Tg2576 mouse brain at 5 mg/kg, po after 4 hrs; assay type: functional; parameters: scale not given: the % may be the effect or the level left
[3] = test system: Mus musculus; experiment: Reduction of amyloid beta42 level in Tg2576 mouse brain at 5 mg/kg, po after 4 hrs; assay type: functional; parameters: scale not given: the % may be the effect or the level left
[4] = Selectivity ratio of EC50 for gamma-secretase to EC50 for mouse notch processing
[5] = Metabolic stability in Tg2576 mouse microsomes assessed as half life; assay type: ADME, Microsome
[6] = Metabolic stability in rat microsomes assessed as half life; assay type: ADME, Microsome
[7] = Metabolic stability in dog microsomes assessed as half life; assay type: ADME, Canis lupus familiaris, Microsome
[8] = Metabolic stability in monkey microsomes assessed as half life; assay type: ADME, Macaca mulatta, Microsome; conditions: rhesus monkey
[9] = Dissociation constant, pKa of the compound; assay type: physicochemical
[10] = in vitro; conditions: human, microsomes
Description: Metabolic stability in human microsomes assessed as half life

[11] = test system: Mus musculus; experiment: Reduction of amyloid beta42 level in Tg2576 mouse brain at 10 mg/kg, po after 4 hrs; assay type: functional; parameters: scale not given: the % may be the effect or the level left
[12] = test system: Mus musculus; experiment: Reversal of cognitive deficits in contextual fear conditioning in Tg2576 mouse model at 10 mg/kg, po; assay type: functional, organism-based; parameters: dose 10 mg/kg
[13] = test system: Mus musculus; experiment: Reduction of amyloid beta40 level in Tg2576 mouse brain at 100 mg/kg, po after 4 hrs; assay type: functional; parameters: scale not given: the % may be the effect or the level left
[14] = test system: Mus musculus; experiment: Reduction of amyloid beta42 level in Tg2576 mouse brain at 100 mg/kg, po after 4 hrs; assay type: functional; parameters: scale not given: the % may be the effect or the level left
[15] = Solubility in Phosal PG50/Tween-80/water; assay type: physicochemical
[16] = Membrane permeability by PAMPA assay; assay type: ADME; conditions: read-out: permeability
[17] = Apparent permeability from apical to basolateral side in human Caco-2 cells; assay type: ADME, cell-based
[18] = Apparent permeability from basolateral to apical side in human Caco-2 cells; assay type: ADME, cell-based
[19] = Ratio of drug level in brain to plasma in Tg2576 mouse model; assay type: ADME
[20] = species on record: Mus musculus; experiment: Reversal of cognitive deficits in contextual fear conditioning in Tg2576 mouse model; assay type: functional, organism-based

| Compound | IC50 [1] [nM] | Ratio EC50 [4] | half-life [5] [min] | half-life [6] [min] | pKa [9] | half-life [10] [min] | other results |
| --- | --- | --- | --- | --- | --- | --- | --- |
| O=S(=O)(N[C@H](CO)C(C(F)(F)F)C(F)(F)F)c1ccc(Cl)s1 [BEGACESTAT] | 15 | 14 | 48 | 3 | 8.3 | > 90 | Activity [2]: 37%; Activity [3]: 25%; half-life [7]: 31 min; half-life [8]: 26 min |
| CCC(CC)[C@@H](CO)NS(=O)(=O)c1ccc(Cl)cc1 | 294 | 14 | – | – | – | – | – |
| C[C@H](NC(=O)Cc1cc(F)cc(F)c1)C(=O)N[C@H](C(=O)OC(C)(C)C)c1ccccc1 | – | – | – | – | – | – | Activity [13]: 25%; Activity [14]: 25%; Activity [20]: Active |
| O=S(=O)(N[C@@H](CO)C(C(F)(F)F)C(F)(F)F)c1ccc(Cl)s1 | 10700 | 3.7 | – | – | – | – | – |
| O=S(=O)(N[C@H](CO)C(CC(F)(F)F)CC(F)(F)F)c1ccc(Cl)s1 | 16 | 15 | 24 | 8 | 8.9 | 8 | Activity [2]: 27%; Activity [3]: 22%; half-life [7]: 13 min; half-life [8]: 5 min |

Further lines, with some results ahead:

| IC50 [1] [nM] | Ratio EC50 [4] | half-life [5] [min] | half-life [6] [min] | pKa [9] | half-life [10] [min] | Compound | other results |
| --- | --- | --- | --- | --- | --- | --- | --- |
| 2210 | – | – | – | – | – | CC[C@H](C)[C@@H](CO)NS(=O)(=O)c1ccc(Br)cc1 | Activity [11]: 25%; Activity [12]: Active |
| 25 | 10 | 2 | 1 | 9.6 | 8 | CCC(CC)[C@@H](CO)NS(=O)(=O)c1ccc(Cl)s1 [GSI-136] | Activity [13]: 25%; Activity [14]: 25%; solubility [15]: 6700 µg/mL (≈ 21.5 mM); Papp [16]: 12.5 ×10⁻⁶ cm/s; Papp A→B [17]: 50 ×10⁻⁶ cm/s; Papp B→A [18]: 43 ×10⁻⁶ cm/s; Kp [19]: 2 |
| 297 | – | – | – | – | – | CC[C@H](C)[C@@H](CO)NS(=O)(=O)c1ccc(Cl)s1 | – |
| 5450 | – | – | – | – | – | CC[C@H](C)[C@@H](CO)NS(=O)(=O)c1ccc(Cl)cc1 | Activity [11]: 25%; Activity [12]: Active |
